Test results from patent US6569882B2, “Bis-sulfonamide hydroxyethyl-amino retroviral protease inhibitors” (G. D. Searle & Co., priority 1995, dated 2003).
Read-outs that look alike come from different tables or passages of the source.

Tests used:
HIV protease = biological target: T1, HIV protease (Human immunodeficiency virus type 1 group M subtype B, UniProt P04585); assay: HIV protease enzyme assay (fluorescence, peptide substrate); type: biochemical; settings: concentration reducing enzyme activity by 50%; substrate 80 μM, enzyme 12.3 nanomolar, pH 6.4
T1 construct: HIV protease is diluted in the assay buffer to a final enzyme concentration of 12.3 nanomolar, based on a molecular weight of 10,780
Description: The compounds of the present invention are effective HIV protease inhibitors. Utilizing an enzyme assay as described below, the compounds set forth in the examples herein disclosed inhibited the HIV enzyme. The preferred compounds of the present invention and their calculated IC50 (inhibiting concentration 50%, i.e., the concentration at which the inhibitor compound reduces enzyme activity by 50%) values are shown in Table 16. The enzyme method is described below. The substrate is 2-Ile-Nle-Phe(p-NO2)-Gln-ArgNH2. The positive control is MVT-101 (Miller, M. et al, Science, 246, 1149 (1989)] The assay conditions are as follows:
20 mM sodium phosphate, pH 6.4
The above described substrate is dissolved in DMSO, then diluted 10 fold in assay buffer. Final substrate concentration in the assay is 80 μM.
HIV protease is diluted in the assay buffer to a final enzyme concentration of 12.3 nanomolar, based on a molecular weight of 10,780.
The final concentration of DMSO is 14% and the final concentration of glycerol is 18%. The test compound is dissolved in DMSO and diluted in DMSO to 10× the test concentration; 10 μl of the enzyme preparation is added, the materials mixed and then the mixture is incubated at ambient temperature for 15 minutes. The enzyme reaction is initiated by the addition of 40 μl of substrate. The increase in fluorescence is monitored at 4 time points (0, 8, 16 and 24 minutes) at ambient temperature. Each assay is carried out in duplicate wells.

HIV-1 in CEM cells = assay: CEM cell assay: HIV inhibition in acutely infected cells, tetrazolium (MTT) colorimetric; type: cell-based; settings: Human immunodeficiency virus 1, CCRF-CEM, 168 h
Procedure: The effectiveness of various compounds were determined in the above-described enzyme assay and in a CEM cell assay.
The HIV inhibition assay method of acutely infected cells is an automated tetrazolium based colorimetric assay essentially that reported by Pauwles et al, J. Virol. Methods, 20, 309-321 (1988). Assays were performed in 96-well tissue culture plates. CEM cells, a CD4+ cell line, were grown in RPMI-1640 medium (Gibco) supplemented with a 10% fetal calf serum and were then treated with polybrene (2 μg/ml). An 80 μl volume of medium containing 1×10^4 cells was dispensed into each well of the tissue culture plate. To each well was added a 100 μl volume of test compound dissolved in tissue culture medium (or medium without test compound as a control) to achieve the desired final concentration and the cells were incubated at 37° C. for 1 hour. A frozen culture of HIV-1 was diluted in culture medium to a concentration of 5×10^4 TCID50 per ml (TCID50=the dose of virus that infects 50% of cells in tissue culture), and a 20 μL volume of the virus sample (containing 1000 TCID50 of virus) was added to wells containing test compound and to wells containing only medium (infected control cells). Several wells received culture medium without virus (uninfected control cells). Likewise, the intrinsic toxicity of the test compound was determined by adding medium without virus to several wells containing test compound. In summary, the tissue culture plates contained the following experiments:
In experiments 2 and 4 the final concentrations of test compounds were 1, 10, 100 and 500 μg/ml. Either azidothymidine (AZT) or dideoxyinosine (ddI) was included as a positive drug control. […] DMSO was added to all control wells at an appropriate concentration.
Following the addition of virus, cells were incubated at 37° C. in a humidified, 5% CO2 atmosphere for 7 days. Test compounds could be added on days 0, 2 and 5 if desired. On day 7, post-infection, the cells in each well were resuspended and a 100 μl sample of each cell suspension was removed for assay. A 20 μL volume of a 5 mg/ml solution of 3-(4,5-dimethylthiazol-2-yl)-2,5-diphenyltetrazolium bromide (MTT) was added to each 100 μL cell suspension, and the cells were incubated for 4 hours at […] in a 5% CO2 environment. […] To each sample was added 100 μl of 10% sodium dodecylsulfate in 0.01 N HCl to lyse the cells, and samples were incubated overnight. The absorbance at 590 nm was determined for each sample using a Molecular Devices microplate reader. Absorbance values for each set of wells is compared to assess viral control infection, uninfected control cell response as well as test compound by cytotoxicity and antiviral efficacy.

[1] = CEM cells acutely infected with HIV-1, 7 days, MTT readout, read-out: EC50

| Compound | IC50 (HIV protease) [µM] | EC50 (HIV-1 in CEM cells) [µM] | EC50 (HIV-1 in CEM cells; [1]) [µM] |
| --- | --- | --- | --- |
| COc1ccc(S(=O)(=O)N(CC(C)C)C[C@@H](O)[C@H](Cc2ccccc2)NC(=O)[C@H](C)CS(=O)(=O)N2CCN(C)CC2)cc1 [Example 2] | 0.008 | 0.077 | – |
| CC(C)CN(C[C@@H](O)[C@H](Cc1ccccc1)NC(=O)[C@H](C)CS(=O)(=O)N1CCN(Cc2cccnc2)CC1)S(=O)(=O)c1ccc2c(c1)OCO2 [Example 11] | 0.009 | – | – |
| CC(C)CN(C[C@@H](O)[C@H](Cc1ccccc1)NC(=O)[C@H](C)CS(=O)(=O)N(C)c1ccccc1)S(=O)(=O)c1ccc2c(c1)OCO2 [Example 14] | 0.004 | – | 0.085 |
| COc1ccc(S(=O)(=O)N(CC(C)C)C[C@@H](O)[C@H](Cc2ccccc2)NC(=O)[C@H](C)CS(=O)(=O)N(C)C)cc1 [Example 4] | 0.004 | 0.015 | – |
| COc1ccc(S(=O)(=O)N(CC(C)C)C[C@@H](O)[C@H](Cc2ccccc2)NC(=O)[C@H](C)CS(=O)(=O)N2CCOCC2)cc1 [Example 1] | 0.01 | – | 0.032 |
| COc1ccc(S(=O)(=O)N(CC(C)C)C[C@@H](O)[C@H](Cc2ccccc2)NC(=O)[C@H](C)CS(N)(=O)=O)cc1 [Example 3] | 0.006 | 0.04 | – |
| COc1ccc(S(=O)(=O)N(CC(C)C)C[C@@H](O)[C@H](Cc2ccccc2)NC(=O)[C@H](C)CS(=O)(=O)N2CCCCC2)cc1 [Example 5] | 0.013 | 0.21 | – |
| CC(C)CN(C[C@@H](O)[C@H](Cc1ccccc1)NC(=O)[C@H](C)CS(=O)(=O)N1CCN(Cc2ccccn2)CC1)S(=O)(=O)c1ccc2c(c1)OCO2 [Example 10] | 0.01 | – | 0.056 |
| COc1ccc(S(=O)(=O)N(CC(C)C)C[C@@H](O)[C@H](Cc2ccccc2)NC(=O)[C@H](C)CS(=O)(=O)NCc2ccccc2)cc1 [Example 7] | 0.003 | 0.032 | – |
| COc1ccc(S(=O)(=O)N(CC(C)C)C[C@@H](O)[C@H](Cc2ccccc2)NC(=O)[C@H](C)CS(=O)(=O)N(Cc2ccccc2)C(c2ccccc2)c2ccccc2)cc1 [Example 6] | 0.004 | – | – |
| CC(C)CN(C[C@@H](O)[C@H](Cc1ccccc1)NC(=O)[C@H](C)CS(=O)(=O)N1CCNCC1)S(=O)(=O)c1ccc2c(c1)OCO2 [Example 8] | 0.009 | – | 0.415 |
| CC(C)CN(C[C@@H](O)[C@H](Cc1ccccc1)NC(=O)[C@H](C)CS(=O)(=O)N1CCCC1)S(=O)(=O)c1ccc2c(c1)OCO2 [Example 13] | 0.006 | – | 0.176 |
| CC(C)CN(C[C@@H](O)[C@H](Cc1ccccc1)NC(=O)[C@H](C)CS(=O)(=O)N1CCN(Cc2ccncc2)CC1)S(=O)(=O)c1ccc2c(c1)OCO2 [Example 12] | 0.009 | – | 0.042 |
| CC(C)CN(C[C@@H](O)[C@H](Cc1ccccc1)NC(=O)[C@H](C)CS(=O)(=O)N1CCN(Cc2ccccc2)CC1)S(=O)(=O)c1ccc2c(c1)OCO2 [Example 9] | 0.006 | – | 0.084 |
| CC(C)CN(C[C@@H](O)[C@H](Cc1ccccc1)NC(=O)[C@H](C)CS(=O)(=O)N(C)Cc1ccccc1)S(=O)(=O)c1ccc2c(c1)OCO2 [Example 15] | 0.004 | – | – |
